Here are results for five compounds from US4585773A, “Isoindolinyl-alkyl-piperazines” (Bristol-Myers Company, priority 1984, dated 1986).

Test [1] in a line: diuretic properties compared to prazosin, acute (1-day) and chronic (5-day), conscious rats. It is filed as in vivo, rat (female Sprague-Dawley). The conditions noted are these: 3.0 mg/kg, by mouth. Here is the method:
In this Example the compound of Example I as the hydrochloride salt containing 3/4 mol of HCl instead of 1 mol HCl, i.e. […] Studies were conducted with conscious, 150-200 g, female Sprague-Dawley rats (Charles River Labs, Wilmington, MA) using the protocol of Hanson et al., Mineral Elect. Metab., 8: 314-324 (1982). Animals were maintained in stainless steel gang cages in temperature-controlled rooms with a 12-hour light, 12-hour dark cycle and provided Purina Rodent Lab Chow, with water ad libitum. All animals were fasted 18 hours prior to acute (first-day) dosing and water was withheld during the experiment. […] Groups of ten animals (2/cage) were studied. A controlled (non-drug) group comprised of an equal number of animals was included. Test drugs were suspended in 0.25% methocel-saline (0.9% NaCl) and administered orally by stomach intubation at the doses mentioned above. The oral fluid load volume containing the respective drug dose was uniformly maintained at 25 ml/kg; controls received in methocel-saline vehicle only. Urine was collected over a 5-hour period from rats housed in metabolism cages (2 rats per cage); one specimen consisted of the pooled sample collected from each cage. The urine volume (ml) excreted by each pair of rats was measured and electrolyte (Na, K, Cl, Ca, P) concentrations were determined with an AAII Autoanalyzer (Technicon) employing established procedures. At the end of the acute (1-day) phase, each pair of rats was returned to a separate cage (2/cage) and provided both food and water. On the following three days, each animal received its respective drug methocel-saline load via a stomach intubation. On the fifth day (after an 18-hour fast) all rats were again treated and placed in metabolism cages (2 rats/cage) for a 5-hour urine collection (chronic-effect: 5-day).

For test [2] the following is noted: background statement; cited from earlier work.
In test [3] the test system is Spontaneously Hypertensive rat. Particulars: Suzuki et al.; cited from earlier work.
The mark [4] stands for this setting: chronic administration (5-days).

Turning to `COc1ccccc1N1CCN(CCCN2Cc3cc(Cl)c(S(N)(=O)=O)cc3C2=O)CC1` [MJ15037-1A, 6-chloro-2,3-dihydro-2-[3-[4-(2-methoxyphenyl)-1-piperazinyl]propyl]-3-oxo-1H-isoindole-5-sulfonamide], the “natriuretic/diuretic activity (in words)” value in test [1] (acute treatment (1-day)) is “no natriuretic/diuretic activity”. In test [1] (setting [4]), the “chlorouresis, increase over control” value is 31% and the “natriuresis, increase over control” value is recorded as 32%.

For `COc1cc2nc(N3CCN(C(=O)c4ccco4)CC3)nc(N)c2cc1OC` [Prazosin, prazosin], the “antihypertensive and diuretic activity (in words)” value in test [2] is listed as “a very active antihypertensive agent has antidiuretic activity”.

Consider `NS(=O)(=O)c1cc2c(cc1Cl)CN(C1CCCCC1)C2=O` [chlorexolone], for which the “effects in the spontaneously hypertensive rat (in words)” value (from here on “effects”) in test [3] is given as “favorable effects”. In test [2], the “antihypertensive and diuretic activity (in words)” value was “diuretic and hypertensive activity”.

Turning to `NS(=O)(=O)c1cc2c(cc1C(F)(F)F)NCNS2(=O)=O` [hydroflumethiazide], the “effects” value in test [3] is on record as “favorable effects”.

As to `Nc1nc(N)c2nc(-c3ccccc3)c(N)nc2n1` [triamterene], in test [3], the “effects” value is reported as “favorable effects”.
